In patent US11045416B2, “Topical compositions comprising Pichia anomala and retinol” (Johnson & Johnson Consumer Inc., priority 2018, dated 2021):

Tested on: Heparin Binding Epidermal Growth Factor (HBEGF)
Assay: HBEGF gene expression in human skin explants by qPCR (Example 3)
Assay type: cell-based
Settings: 4 μL topically, 48 hours; observed minus untreated (100)
Experimental: First, abdominal skin samples were obtained from human adults undergoing abdominoplasty surgery. Informed consent was obtained from each patient, and all experimental steps were approved by an institutional review board (IRB). Subcutaneous fat was carefully removed and skin biopsies of 0.93 cm^2 were prepared under sterile conditions and acclimated in keratinocyte growth media sold under the tradename KGM-GOLD BULLETKIT (Lonza, Walkersville, Md.), with 10% antibiotics under a 5% CO2 humidified atmosphere overnight.
The skin explants were treated topically with 4 μL of the various formulations and left to incubate for 48 hours. An untreated explant sample was used as the control. In the case of combined application of Composition 5 and the 5% solution of Pichia anomala extract, 4 μL of each were applied. At the end of the 48 h, epidermis and dermis were separated by heating. […]
Gene expression assays were performed by real time quantitative polymerase chain reaction (PCR) based on the SyBR green method. qPCR was run on a real time PCR system sold under the tradename CFX96 TOUCH (Bio-Rad Laboratories, Inc., Hercules, Calif.). […] The fold changes were calculated in comparison to the untreated controls and ANOVA statistical test was performed.

CC1=C(/C=C/C(C)=C/C=C/C(C)=C/CO)C(C)(C)CCC1 [retinol, Retinol]
HBEGF expression, Observed Normalized to untreated: 291
